Laboratory results taken from patent US20250171762A1, “THERAPEUTICAL PEPTIDOMIMETIC” (UNIVERSITA' DEGLI STUDI DI ROMA "LA SAPIENZA", priority 2021, published 2025).
“Also recorded” adds a separate entry of the source. Read-outs that look alike come from different tables or passages of the source.

Key:
[1] = Plasma stability: incubation in human plasma, UPLC-MS quantification; format: in vitro ADME; conditions: for remaining at 3 h, 0.2 mM: read-out: peptide available after incubation in plasma
Procedure: Panel B. Time course decay of β32_33, PMT, PMT-8a and PMT-8b incubated up to 72 h with human plasma from four healthy subjects. […] The Y axis indicates the signal intensity of the four peptides. Samples of plasma were obtained from healthy volunteers and immediately used for the analysis. Either β32_33 peptide or PMT for the experiment in panel A, and β32_33 peptide, PMT, PMT-8a or PMT-8b for the experiment in panel B, was incubated in plasma at a final concentration of 0.2 mM, at 37° C., up to 3 h (A) or 72 h (B). At the indicated time points, i.e., T0 and 3 h (A) or T0, 1.5, 3, 6 and 72 h (B), aliquots of 200 μL were treated with 3 volumes of acetonitrile containing 1% formic acid and extracted by a solid phase extraction system to remove proteins and phospholipids. Samples were dried under vacuum, resuspended in 100 μL of 0.1% formic acid containing 5% acetonitrile, and analyzed with a Water Acquity H-Class UPLC system equipped with a single-quadruple mass detector with electrospray ionization source. Samples were separated onto a reverse phase C18 column by performing a gradient with two mobile phases consisting of 0.1% formic acid in water and 0.1% formic acid in acetonitrile at a flow rate of 0.5 mL/min. Quantification was performed by Selected lon Recording (SIR): at m/z=917.88, corresponding to the [M+2 H]^2+ion obtained from either β32_33 or PMT; at m/z=961.42, corresponding to the [M+H]^+ion obtained from PMT-8a; and at m/z=869.48, corresponding to the [M+H]^+ion obtained from PMT-8b.
In order to evaluate whether compounds (βp and d-βp) are stable in blood or hydrolyzed by plasma peptidases, we set up a chromatographic assay to evaluate compound concentration after incubation in human plasma.
Blood was drawn by venipuncture in vacutainer containing EDTA as an anticoagulant.
Two different samples from healthy volunteers were used. Plasma was separated by centrifugation and immediately used for the experiments. Each compound was dissolved in 500 uL plasma at a final concentration of 0.2 mM, and split into two aliquots, one of which was immediately analyzed to assess the basal compound level; the other was incubated at 37° C. for 3 hours under gentle shaking. In order to perform chromatographic analysis the samples were treated with 3 volumes of acetonitrile containing 1% formic acid, and then extracted by using the Ostro™ pass-through sample preparation system to remove proteins and phospholipids. Samples were dried under vacuum and then resuspended in 100 uL of 0.1% formic acid containing 5% acetonitrile, then directly injected onto the chromatographic column.
Chromatographic analyses were performed on a Water Acquity H-Class UPLC system (Waters, Milford, MA, USA), including a quaternary solvent manager (QSM), a sample manager with a flow through needle system (FTN), a photodiode array detector (PDA) and a single-quadruple mass detector with electrospray ionization source (ACQUITY QDa). Analyses were performed on a reverse phase C18 column (75 mm×3.2 mm i.d., 2.5 μm particle size). The mobile phase was solvent A, 0.1% formic acid in water, and solvent B, 0.1% formic acid in acetonitrile. The flow rate was 0.5 mL/min, the column temperature was set at 25° C. and the elution was performed by linearly increasing the concentration of solvent B up to 70% in 7 minutes. Mass spectrometric detection was performed in the positive electrospray ionization mode, using nitrogen as the nebulizer gas. Analyses were performed in the Total lon Current (TIC) mode with a mass range of 100-1200 m/z. The capillary voltage was 0.8 kV, cone voltage 8 V, ion source temperature 120° C. and probe temperature 600° C. Quantification of each compound was performed by Selected lon Recording (SIR) at m/z 917.88, corresponding to the […]

[2] = tested on: m·3243A>G mt-tRNA^Leu(UUR) mutant cybrids; assay: Cell viability, Trypan blue dye exclusion, galactose vs glucose medium; format: cell-based, human; conditions: for viability of mutant cybrids vs non treated mutant cells: galactose medium
Procedure: For viability assessment, cells were plated in either glucose or galactose medium. The reason for this is that a viability phenotype can be appreciated in cells growing on galactose, which forces cells to rely on mitochondrial respiration, but not in cells growing on glucose. After 24 hours incubation, the number of viable cells in the galactose medium was normalized to the number of viable cells in glucose at the same time point, which represents the normal growth condition. Data are compared with the value of mutant cells incubated with vehicle only. Mean±SEM of at least three independent experiments is shown.
For viability assessment, cells were plated in either glucose or galactose medium. The reason for this is that a viability phenotype can be appreciated in cells growing on galactose, which forces cells to rely on mitochondrial respiration, but not in cells growing on glucose. After 24 hours incubation the number of viable cells in galactose medium was normalized to the number of viable cells in glucose (that represents the normal growth condition) at the same time point. Data are compared with the value of mutant cells incubated with vehicle only. Means±SEM of at least two independent experiments are shown.
Previously established osteosarcoma derived (143B.TK-) cybrid cell lines from patients, which bear either the m·3243A>G mutation in mt-tRNA^Leu(UUR) or the m·8344A>G mutation in mt-tRNA^Lys, and controls were used (generous gift from Dr Valeria Tiranti and Dr Valerio Carelli).
Cybrid cells were cultured in Dulbecco's modified Eagle's medium (DMEM), supplemented with 4.5 g/l d-glucose, 10% foetal bovine serum (FBS), 2 mM I-glutamine, 50 μg/ML uridine, 100 U/mL penicillin, and […] (referred to as glucose medium) in a humidified atmosphere of 95% air and 5% CO2 at 37° C. For cell viability experiments, cells were grown either in glucose medium or in glucose-free DMEM, supplemented with 5 mM galactose, […] sodium pyruvate, and 10% FBS (referred to as galactose medium). The reason for using the latter medium is that a pathological phenotype can be appreciated in cells growing on galactose, which forces cells to rely on mitochondrial respiration, but not in cells growing on glucose.
[…] Cells were switched in glucose or galactose and after 24 hours cell viability was measured by the Trypan blue dye exclusion assay. Cells were harvested with 0.25% trypsin and 0.2% EDTA, washed, suspended in PBS in the presence of Trypan blue solution (Sigma-Aldrich) at 1:1 ratio and counted using a hemocytometer. The number of viable cells in galactose medium was expressed as a percentage of the number of cells in glucose medium.
(§1) To evaluate the effect of the compounds on viability, cybrids were grown in glucose-free medium supplemented with galactose (galactose medium), a condition that both forces cells to rely on the mt respiratory chain for ATP synthesis and causes a significant growth reduction in the presence of mutations.
as §1, with “PMT and M-PMT” for “the compounds”

[3] = first experiment, plasma of two healthy volunteers, 37° C., 0.2 mM, 3 hours (FIG. 4A)
[4] = human, human plasma (EDTA) from healthy volunteers, first experiment, plasma of two healthy volunteers, 37° C., 0.2 mM, 3 hours (FIG. 4A)
[5] = second experiment, plasma of four healthy volunteers, 3 hours (FIG. 4B)

peptide available after incubation in plasma [1, 3]	degraded peptide after incubation in plasma ([1]; first experiment, plasma of two healthy volunteers, 37° C., 3 hours (FIG. 4A))	remaining at 3 h, 0.2 mM [1, 4]	metabolised at 3 h, 0.2 mM ([1]; human, human plasma (EDTA) from healthy volunteers, first experiment, plasma of two healthy volunteers, 37° C., 3 hours (FIG. 4A), read-out: degraded peptide after incubation in plasma)	metabolised at 6 h, 0.2 mM ([1]; human, human plasma from healthy volunteers, second experiment, 6 h, read-out: peptide degraded after incubation in plasma)	remaining at 1.5 h, 0.2 mM ([1]; human, human plasma from healthy volunteers, second experiment, plasma of four healthy volunteers, 1.5 h (FIG. 4B), read-out: starting amount present after incubation in plasma)	remaining at 3 h, 0.2 mM ([1]; human, human plasma from healthy volunteers, second experiment, plasma of four healthy volunteers, 3 hours (FIG. 4B))	peptide available after incubation in plasma [1, 5]	remaining at 6 h, 0.2 mM ([1]; human, human plasma from healthy volunteers, second experiment, 6 h, read-out: peptide present after incubation in plasma)	detectable degradation in plasma ([1]; second experiment, plasma of four healthy volunteers, up to 72 h)	Compound	detectable degradation in plasma ([1]; first experiment, plasma of two healthy volunteers, 3 hours)	plasma stability compared with another peptide ([1]; human plasma, FIG. 4)	viability of mutant cybrids vs non treated mutant cells ([2]; 0.5 μM, 24 hours (FIG. 6))	viability of mutant cybrids vs non treated mutant cells ([2]; 2 μM, 24 hours (FIG. 6))	viability of mutant cybrids vs non treated mutant cells ([2]; 5 μM, 24 hours)	lower concentration improving viability with respect to PMT ([2]; m·3243A>G mutant cybrids, FIG. 6)
70%	at least 30%	70%	30%	90%	> 85%	17%	17%			CC[C@H](C)[C@H](NC(=O)[C@H](CC(C)C)NC(=O)[C@H](C)NC(=O)[C@@H](NC(=O)[C@H](CCCNC(=N)N)NC(=O)[C@@H]1CCCN1C(=O)[C@H](CO)NC(=O)[C@H](CC(C)C)NC(=O)[C@H](Cc1ccccc1)NC(=O)[C@H](CO)NC(=O)[C@H](CCCCN)NC(=O)[C@@H](N)CCCCN)[C@@H](C)O)C(=O)N[C@@H](CC(N)=O)C(=O)N[C@@H](Cc1ccccc1)C(=O)N[C@@H](CC(C)C)C(=O)N[C@H](C(=O)O)C(C)C [β32_33, KKSFLSPRTALINFLV, reference compound]						
100%		100%					> 63%	> 50%	did undergo detectable degradation	CC[C@@H](C)[C@@H](NC(=O)[C@@H](CC(C)C)NC(=O)[C@@H](C)NC(=O)[C@H](NC(=O)[C@@H](CCCNC(=N)N)NC(=O)[C@H]1CCCN1C(=O)[C@@H](CO)NC(=O)[C@@H](CC(C)C)NC(=O)[C@@H](Cc1ccccc1)NC(=O)[C@@H](CO)NC(=O)[C@@H](CCCCN)NC(=O)[C@H](N)CCCCN)[C@H](C)O)C(=O)N[C@H](CC(N)=O)C(=O)N[C@H](Cc1ccccc1)C(=O)N[C@H](CC(C)C)C(=O)N[C@@H](C(=O)O)C(C)C [PMT, d(K)d(K)d(S)d(F)d(L)d(S)d(P)d(R)d(T)d(A)d(L)d(I)d(N)d(F)d(L)d(V)]	does not undergo visible degradation; also recorded: did not undergo detectable degradation	consistently higher stability than the β32_33 peptide; also recorded: higher plasma stability than the β32_33 peptide at all time points; also recorded: slower degradation than the β32_33 peptide				
										FRFKKKSFLSPRTALINFLV (SITE 1 d-Phenylalanine; SITE 2 d-Arginine; SITE 3 d-Phenylalanine; SITE 4 d-Lysine; SITE 5 d-Lysine; SITE 6 d-Lysine; SITE 7 d-Serine; SITE 8 d-Phenylalanine; SITE 9 d-Leucine; SITE 10 d-Serine; SITE 11 d-Proline; SITE 12 d-Arginine; SITE 13 d-Threonine; SITE 14 d-Alanine; SITE 15 d-Leucine; SITE 16 d-Isoleucine; SITE 17 d-Asparagine; SITE 18 d-Phenylalanine; SITE 19 d-Leucine; SITE 20 d-Valine) [M-PMT]			significantly improves	significantly improved	significantly improved	10 fold
